Test results from patent US7416724B2, “Diagnosis and treatment of diseases arising from defects in the tuberous sclerosis pathway” (The Regents of the University of Michigan, priority 2002, dated 2008).
Entries after “also recorded” stand apart in the source; their conditions may differ. Read-outs that look alike come from different tables or passages of the source.

Columns and labels:
[1] = tested on: S6K; assay: Phosphorylation of S6K, immunoblot with anti-phospho S6K antibody; type: cell-based; conditions: for phosphorylation of S6K on T389: endogenous S6K
Source text: (§1) Anti-S6K, anti-phospho S6K, anti-mTOR, anti-phospho mTOR, anti-Akt, anti-phospho Akt, antiphospho 4EBP-1 and anti-phospho ERK antibodies were from Cell Signalling Inc. Anti-TSC2 and anti-Myc antibodies were from Santa Cruz Biotechnology (Santa Cruz, Calif.). Anti-HA and anti-Flag antibodies were from Covance (Princeton, N.J.) and Sigma (St Louis, Mo.), respectively. HA-tagged S6K1 (II) and GST-S6 constructs were obtained from J. Blenis (Columbia Univ., NY, N.Y.). […] All other DNA constructs, including H-RasV12, PTEN, PTEN-CS, Akt, Akt-KM, Flag-ubiquitin and Flag-4E-BP1, were laboratory stock. All mutant constructs of TSC2 were created by PCR mutagenesis and verified by DNA sequencing. LY294002 was from Calbiochem (San Diego, Calif.); phosphatase was from New England Biolabs (Beverly, Mass.). MG132 was from the Peptide Institute. Cycloheximide and wortmannin were from Sigma. D-PBS was from Gibco. Rapamycin was from Cell Signalling.
(§2) HEK293 cells were seeded and maintained in Dulbecco's modified Eagle's medium (DMEM) containing 10% fetal bovine serum (FBS). Transfection was performed in serum-free conditions using Lipofectamine reagent (Invitrogen, Carlsbad, Calif.) in accordance with the manufacturer's instructions. In brief, 4 h after transfection, the cells were recovered in DMEM containing 10% FBS for 16 h and then starved for […]. Cells were then lysed in lysis buffer (10 mM Tris-HCl at pH 7.5, 100 mM sodium chloride, 1% NP-40, 1% Triton X-100, 50 mM sodium fluoride, 2 mM EDTA, 1 mM phenyl methylsulphonyl fluoride, 10 g ml^−1 leupeptin and 10 g ml^−1 aprotinine) and immunoprecipitated with the indicated antibodies and protein G-Sepharose beads. Immunocomplexes were analyzed by SDS-polyacrylamide gel electrophoresis (PAGE).

[2] = tested on: Akt; assay: Phosphorylation of Akt, immunoblot; type: cell-based
Source text: as §1
(§3) HEK293 cells were seeded and maintained in Dulbecco's modified Eagle's medium (DMEM) containing 10% fetal bovine serum (FBS). Transfection was performed in serum-free conditions using Lipofectamine reagent (Invitrogen, Carlsbad, Calif.) in accordance with the manufacturer's instructions. […] Immunocomplexes were analyzed by SDS-polyacrylamide gel electrophoresis (PAGE).

[3] = tested on: TSC2; assay: TSC2 mobility shift on SDS-PAGE; type: cell-based; conditions: for mobility of TSC2 / 2-DG induced mobility shift: HEK293 cells, 10 μM, added 30 minutes before 2-DG, FIG. 11C
Protocol: as §2

[4] = tested on: AMPK; conditions: Corton et al., 1995; cited from earlier work
[5] = tested on: S6K; conditions: Kimura et al., 2003; Krause et al., 2002; cited from earlier work
[6] = tested on: eukaryotic elongation factor 2 (eEF2); conditions: Horman et al., 2002; cited from earlier work
[7] = tested on: S6K-dC104; assay: Thr 389 phosphorylation and kinase activity of rapamycin-resistant mutant S6K-dC104; type: cell-based; conditions: FIG. 7a
Protocol: For the S6K assays, HEK293 cells grown in six-well plates were transfected with 10-20 ng HA-S6K constructs, with or without various plasmids, as indicated in the figures. HA-S6K was immunoprecipitated from serum-starved cells with an anti-HA antibody and analyzed by in vitro kinase assay using purified GST-S6 as a substrate (Pearson et al., EMBO J. 14, 5279-5287 (1995)).

[8] = tested on: 4EBP1; assay: Phosphorylation of 4EBP1, immunoblot; type: cell-based
Source text: as §1, §2

[9] = tested on: TSC1; assay: TSC1 mobility on SDS-PAGE; type: cell-based; conditions: FIG. 11A
Protocol: as §2

[10] = tested on: S6K; conditions: concentrations between 20 and 100 mM (Dennis et al., 2001); cited from earlier work
[11] = tested on: TSC2; assay: In vivo 32P-labelling and two-dimensional phosphopeptide mapping of TSC2; type: cell-based, rat
Protocol: HEK293 cells were cotransfected with HA-tagged TSC2, Myc-tagged TSC1 and the indicated plasmids. Cells were phosphate- and serum-starved for 4 h before incubation with 0.25 mCi ml^−1 32P-orthophosphate (ICN) for 4 h.
Cells were washed once with ice-cold PBS and lysed. HA-tagged TSC2 was immunoprecipitated, resolved by SDS-PAGE and transferred to a PVDF membrane. Phosphorylated TSC2 was visualized by autoradiography and phosphopeptide mapping was then performed. In brief, the phosphorylated TSC2 bands were excised, fixed in methanol and incubated in 500 1 of 0.5% polyvinylpyrrolidone-40 dissolved in 100 mM acetic acid for 30 min at 37° C. The sample were then digested with 20 g of TPCK-treated trypsin (Sigma) at 37° C. in 75 mM ammonium bicarbonate buffer at pH 8.0 containing 5% acetonitrile. After digestion, samples were dried under vacuum and suspended in 10 1 of water. Samples were spotted onto a cellulose plate and first dimensional electrophoresis was performed using 1% ammonium bicarbonate buffer at pH 8.9. The plates were separated by chromatography in the second dimension in chromatography buffer (n-butanol:pyridine:acetic acid:water; 20:24:6:30). The plates were dried and phosphopeptides were visualized by autoradiography.

[12] = tested on: AMPK; assay: AMPK activation (T172 phosphorylation); type: cell-based; conditions: 25 mM
[13] = tested on: S6; assay: Phosphorylation of S6, immunoblot; type: cell-based; conditions: FIG. 8C
Protocol: as §2

[14] = tested on: intracellular ATP; conditions: concentrations between 20 and 100 mM (Dennis et al., 2001); cited from earlier work
[15] = tested on: intracellular ATP; assay: Intracellular ATP levels and AMP/ATP ratio; type: cell-based; conditions: cells treated with 25 mM
[16] = tested on: mTOR; assay: Phosphorylation of mTOR at Ser 2448, immunoblot with anti-phospho-mTOR antibody; type: cell-based; conditions: 25 mM, FIG. 8C
Source text: as §1, §3

[17] = tested on: AMPK and TSC2; assay: Co-immunoprecipitation of AMPK and TSC2; type: cell-based
Protocol: as §2

[18] = tested on: HEK293 cells; assay: Cell size of HEK293 cells; type: cell-based; conditions: 12.5 mM 2-DG, TSC2 RNAi, or 20 nM rapamycin for 72 hours, FIG. 14D
[19] = tested on: 4EBP1; conditions: concentrations between 20 and 100 mM (Dennis et al., 2001); cited from earlier work
[20] = tested on: LEF (TSC2-/- epithelial) cells; assay: Cell death / apoptosis of LEF cells; type: cell-based; conditions: vector and wild type TSC2 expressing LEF cells
[21] = depletion of cellular ATP, FIG. 8A
[22] = EEF8 (TSC2-/-) fibroblasts, vector infected, FIG. 13C
[23] = EEF8 cells expressing wild type TSC2, FIG. 13C

In the case of `c1cc(-c2cnn3cc(-c4ccc(OCCN5CCCCC5)cc4)cnc23)ccn1` [Compound C], the “S6K dephosphorylation induced by glucose deprivation” value ([1]; FIG. 11F, listed as AMPK inhibitor) is reported as “significantly blocked; also recorded: partially blocks”, the “inhibitory effect of 2-DG on S6K phosphorylation” value ([1]; HEK 293 cells, FIG. 11E, listed as AMPK inhibitor) is reported as “significantly reversed; also recorded: blocks the 2-DG induced dephosphorylation” and the Akt phosphorylation ([2]; HEK 293 cells, AMPK inhibitor treatment) is reported as “had no effect”. For the same molecule, the “mobility of TSC2 / 2-DG induced mobility shift” value [3] was “blocks the 2-DG induced mobility shift” and the “mobility of TSC2 / 2-DG induced mobility shift” value ([3]; listed as compound C) was “increased the mobility”.

In the case of `NC(=O)c1ncn([C@@H]2O[C@H](COP(=O)(O)O)[C@@H](O)[C@H]2O)c1N` [AICAR, 5-aminoimidazole-4-carboxyamide ribonucleotide], the AMPK activation [4] is listed as “activate AMPK”, the S6K activity [5] is listed as “inhibit S6K activity” and the “phosphorylation of eEF2” value [6] is listed as “increase phosphorylation”.

For `CO[C@H]1C[C@@H]2CC[C@@H](C)[C@@](O)(O2)C(=O)C(=O)N2CCCC[C@H]2C(=O)O[C@H]([C@H](C)C[C@@H]2CC[C@@H](O)[C@H](OC)C2)CC(=O)[C@H](C)/C=C(\C)[C@@H](O)[C@@H](OC)C(=O)[C@H](C)C[C@H](C)/C=C/C=C/C=C/1C` [rapamycin], the “phosphorylation of Thr 389 in S6K-dC104” value [7] was “not inhibited”.

With `CC(=O)c1c(O)c(C)c(O)c(Cc2c(O)c3c(c(C(=O)/C=C/c4ccccc4)c2O)OC(C)(C)C=C3)c1O` [Rottlerin] the S6K phosphorylation ([1]; EEF4 (TSC2+/+) fibroblasts, FIG. 10F) was “caused a decrease”, the “phosphorylation of S6K” value [1, 21] was “caused a dephosphorylation” and the “phosphorylation of 4EBP1” value [8, 21] was “caused a dephosphorylation”.

With `O=CC[C@@H](O)[C@H](O)[C@H](O)CO` [2-DG, 2-deoxy-glucose] the “phosphorylation of S6K on T389” value ([1]; 25 mM, FIG. 8C) was “effectively inhibited; also recorded: dephosphorylation”, the “S6K phosphorylation as a function of treatment time” value ([1]; 25 mM, time course, FIG. 8E) was “concomitant dephosphorylation” and the S6K phosphorylation [1, 22] was “caused little decrease”. The S6K phosphorylation [1, 23] was “significantly decreased”, the “phosphorylation of S6K” value [1, 21] was “caused a dephosphorylation” and the “mobility of TSC1” value [9] was “did not alter the mobility”. For the same molecule, the 4EBP1 phosphorylation ([8]; EEF4 (TSC2+/+) cells, FIG. 10G) was “inhibition of phosphorylation”, the 4EBP1 phosphorylation [8, 22] was “caused little decrease” and the 4EBP1 phosphorylation [8, 23] was “significantly decreased”. For the same molecule, the “phosphorylation of endogenous 4EBP1” value ([8]; FIG. 8C) was “specifically inhibits; also recorded: dephosphorylation”, the “phosphorylation of 4EBP1” value [8, 21] was “caused a dephosphorylation” and the S6K phosphorylation [10] was “inhibition”. The “phosphorylation of TSC2 phosphopeptides” value ([11]; 25 and 40 mM, FIG. 12A) was “enhanced phosphorylation of several peptides; also recorded: induce TSC2 phosphorylation on multiple spots”, the “T172 phosphorylation in AMPK” value ([12]; FIG. 8D) was “dramatic increase; also recorded: induces phosphorylation” and the “AMPK activation as a function of treatment time” value ([12]; time course, FIG. 8E) was “rapid AMPK activation”. For the same molecule, the Akt phosphorylation ([2]; 25 mM, FIG. 8C) was “had little effect”, the “phosphorylation of endogenous S6” value [13] was “dephosphorylation” and the AMPK activation [4] was “activate AMPK”. The “mobility shift of TSC2” value ([3]; FIG. 11A) was “mobility shift”, the S6K activity [5] was “inhibit S6K activity” and the “reduction of intracellular ATP levels” value [14] was 20 to 50%. The ATP levels ([15]; FIG. 8F) was “statistically significant reduction; also recorded: decreases”, the AMP/ATP ratio ([15]; FIG. 8G) was “increases” and the “phosphorylation of mTOR S2448” value [16] was “inhibited; also recorded: dephosphorylation”. The “interaction between endogenous AMPK and overexpressed TSC2” value ([17]; FIG. 9D) was “enhances the interaction”, the “interaction between endogenous AMPK and TSC2 (co-immunoprecipitation)” value ([17]; HEK293 cells, FIG. 9A, B) was “interact preferentially; also recorded: enhanced; also recorded: stimulates the interaction” and the cell size [18] was “decreases cell size; also recorded: significantly decreased cell size”. The 4EBP1 phosphorylation [19] was “inhibition” and the “phosphorylation of eEF2” value [6] was “increase phosphorylation”.

For “insulin: stimulus of the insulin-Akt pathway, used at 400 nM”, the “phosphorylation of Thr 389, Thr 421 and Ser 424 of S6K” value ([1]; FIG. 1b) was “stimulated” and the “phosphorylation of TSC2 phosphopeptides” value ([11]; insulin (400 nM), LY294002 or rapamycin (20 nM), FIG. 3c) was “slightly increased phosphorylation”.

With `N#CC(C#N)=NNc1ccc(OC(F)(F)F)cc1` [FCCP] the S6K phosphorylation [1] was “caused a decrease”, the “phosphorylation of S6K” value [1] was “caused a dephosphorylation” and the “phosphorylation of 4EBP1” value [8] was “caused a dephosphorylation”.

With `OC[C@@H](O)[C@@H](O)[C@H](O)[C@H](O)CO` [mannitol] the “phosphorylation of S6K on T389” value ([1]; 25 mM, FIG. 8C) was “had little effect” and the “phosphorylation of S6K” value ([1]; 100 mM, FIG. 8C) was “significantly inhibited”.

For `COc1cc([C@@H]2c3cc4c(cc3[C@@H](O[C@@H]3O[C@@H]5CO[C@@H](C)O[C@H]5[C@H](O)[C@H]3O)[C@H]3COC(=O)[C@H]23)OCO4)cc(OC)c1O` [etoposide], the cell death [20] was “caused cell death”.
